In general, MIC refers to the lowest concentration found to suppress growth.

Structures are written as SMILES.

Here are results for one molecule from patent US20070129344A1, “Bicyclic 6-alkylidene-penem beta-lactamase inhibitors and beta-lactam antibiotic combination: a broad spectrum antibiotic” (priority 2005, published 2007).

Conditions in all cases: Cefepime + 4 ug/ml Compound 1
For experiment [1], the system named is P. aeruginosa GC 1764 AmpC-constitutive. Description: MIC microbroth dilution; β-lactamase class C. Type of experiment: cell-based. In a few lines: (§1)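 Under ambient air at 35° C., microdilution plates containing Mueller-Hinton II broth were incubated 18-22 hours, following NCCLS M7-A5 procedures.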
In general terms: Dilution methods test growth across graded concentrations, often in twofold steps.

The subject of experiment [2] is S. marcescens PT 488 Stably derepressed AmpC. As to the kind of experiment: MIC microbroth dilution; β-lactamase class C. The class given is cell-based. The method, boiled down:
as §1

A further experiment deals with E. coli GC 2905 (P99). As to the kind of experiment: MIC microbroth dilution; β-lactamase class C. Type of experiment: cell-based. The method, boiled down: as §1
The test system of experiment [3] is S. marcescens GC 4150 Stably derepressed AmpC. Description: MIC microbroth dilution; β-lactamase class C. The class given is cell-based. The method, boiled down:
as §1

The test system of experiment [4] is S. marcescens PT 6003 Stably derepressed AmpC. Description: MIC microbroth dilution; β-lactamase class C. Type of experiment: cell-based. In a few lines: as §1
Another experiment has as its system K. pn GC 1827 (TEM-3). As to the kind of experiment: MIC microbroth dilution; β-lactamase class A (ESBL). The class given is cell-based, K. pneumoniae. As to the method: The in vitro activities of the antibiotics were determined by the microbroth dilution method as recommended by the National Committee for Clinical Laboratory Standards (NCCLS). (NCCLS. 2000. Methods for Dilution Antimicrobial Susceptibility Tests for Bacteria That Grow Aerobically; Approved Standards: M7-A5, vol. 19. National Committee for Clinical Laboratory Standards, Villanova, Pa.). Mueller-Hinton II broth (MHBII)(BBL Cockeysville, Md.), was used for the testing procedure. […]. The plates were incubated for 18-22 hours at 35° C. in ambient air.

For the molecule `O=C([O-])C1=CS[C@@H]2/C(=C\c3cn4c(n3)CCC4)C(=O)N12.[Na+]` [Compound 1, (5R), (6Z)-6-(6,7-Dihydro-5H-pyrrolo[1,2-a]imidazol-2-ylmethylene)-7-oxo-4-thia-1-aza-bicyclo[3.2.0]hept-2-ene-2-carboxylic Acid, Sodium Salt], the MIC in experiment [1] was found to be 0.50 µg/mL; in experiment [2], 0.06 µg/mL; in the experiment with E. coli GC 2905 (P99), 0.06 µg/mL; in experiment [3] it was 0.25 µg/mL; in experiment [4], 0.25 µg/mL; in the experiment with K. pn GC 1827 (TEM-3) it was 0.03 µg/mL.
